Key:
Assay type in all cases: cell-based
[1] = test system: A549; test: Inhibition of Influenza A virus (A/Bar-headed Goose/Qinghai/59/05(H5N1)) hemagglutininin-mediated viral entry into human A549 cells assessed as infectivity at 10 uM after 48 hrs postinfection by luciferase assay relative to control; parameters: scale not given: the % may be the effect or the level left
[2] = test system: A549; test: Inhibition of Vesicular stomatitis virus envelope glycoprotein-mediated viral entry into human A549 cells assessed as infectivity at 10 uM after 48 hrs postinfection by luciferase assay relative to control; parameters: scale not given: the % may be the effect or the level left
[3] = test system: A549; test: Inhibition of Influenza A virus (A/Viet Nam/1203/2004(H5N1)) hemagglutininin-mediated viral entry into human A549 cells assessed as infectivity at 10 uM after 48 hrs postinfection by luciferase assay relative to control; parameters: scale not given: the % may be the effect or the level left
[4] = Inhibition of Influenza A virus (A/Bar-headed Goose/Qinghai/59/05(H5N1)) hemagglutininin-mediated viral entry into human A549 cells assessed as luciferase activity after 48 hrs postinfection by luminometry
[5] = Inhibition of Influenza A virus (A/Viet Nam/1203/2004(H5N1)) hemagglutininin-mediated viral entry into human A549 cells assessed as luciferase activity after 48 hrs postinfection by luminometry

SMILES	Activity [1] [%]	Activity [2] [%]	Activity [3] [%]	IC50 [4] [µM]	IC50 [5] [µM]
C[C@@H]1O[C@@H](O[C@H]2[C@H](O[C@H]3CC[C@@]4(C)C(=CC[C@@H]5[C@@H]4CC[C@]4(C)C(=O)CC[C@@H]54)C3)O[C@H](CO)[C@@H](O[C@@H]3O[C@@H](C)[C@H](O)[C@@H](O)[C@H]3O)[C@@H]2O)[C@H](O)[C@H](O)[C@H]1O	108	100	106		
C[C@@H](CO)CC[C@H]1O[C@H]2C[C@H]3[C@@H]4C[C@H](O)[C@H]5C[C@@H](O[C@@H]6O[C@H](CO)[C@@H](O[C@@H]7O[C@@H](C)[C@H](O)[C@@H](O)[C@H]7O)[C@H](O)[C@H]6O[C@@H]6O[C@@H](C)[C@H](O)[C@@H](O)[C@H]6O)CC[C@]5(C)[C@H]4CC[C@]3(C)[C@H]2[C@@H]1C	97.9	111	102		
C[C@@H]1CC[C@@]2(OC1)O[C@H]1C[C@H]3[C@@H]4C[C@H](O)[C@H]5C[C@@H](O[C@@H]6O[C@H](CO)[C@@H](O)[C@H](O)[C@H]6O[C@@H]6O[C@@H](C)[C@H](O)[C@@H](O)[C@H]6O)CC[C@]5(C)[C@H]4CC[C@]3(C)[C@H]1[C@@H]2C	61	122	57.9		
COC(=O)[C@]12CCC(C)(C)C[C@H]1C1=CC[C@@H]3[C@@]4(C)CC[C@H](O[C@@H]5O[C@H](CO)[C@@H](O[C@@H]6O[C@@H](C)[C@H](O)[C@@H](O)[C@H]6O)[C@H](O)[C@H]5O[C@@H]5O[C@@H](C)[C@H](O)[C@@H](O)[C@H]5O)C(C)(C)[C@@H]4CC[C@@]3(C)[C@]1(C)CC2	35.3	48.4	17.5		
COC(=O)[C@]12CC[C@@H](C)[C@H](C)[C@H]1C1=CC[C@@H]3[C@@]4(C)CC[C@H](O[C@@H]5O[C@H](CO)[C@@H](O[C@@H]6O[C@@H](C)[C@H](O)[C@@H](O)[C@H]6O)[C@H](O)[C@H]5O[C@@H]5O[C@@H](C)[C@H](O)[C@@H](O)[C@H]5O)C(C)(C)[C@@H]4CC[C@@]3(C)[C@]1(C)CC2	37.7	86	43.3	6	8.54
C[C@@H]1CC[C@@]2(OC1)O[C@H]1C[C@H]3[C@@H]4C[C@H](O)[C@H]5C[C@@H](O[C@@H]6O[C@H](CO)[C@@H](O[C@@H]7O[C@@H](C)[C@H](O)[C@@H](O)[C@H]7O)[C@H](O)[C@H]6O[C@@H]6O[C@@H](C)[C@H](O)[C@@H](O)[C@H]6O)CC[C@]5(C)[C@H]4CC[C@]3(C)[C@H]1[C@@H]2C	42.6	111	36.3	7.22	7.84
CCC(/C=C/[C@@H](C)[C@H]1CC[C@H]2[C@@H]3CC=C4C[C@@H](O[C@@H]5O[C@H](CO)[C@@H](O[C@@H]6O[C@@H](C)[C@H](O)[C@@H](O)[C@H]6O)[C@H](O)[C@H]5O[C@@H]5O[C@@H](C)[C@H](O)[C@@H](O)[C@H]5O)CC[C@]4(C)[C@H]3CC[C@]12C)C(C)C (stereo partly specified)	73.6	76.2	64.6		
CC(=O)O[C@H]1C[C@@H]2[C@H](CC[C@]3(C)[C@@H]4[C@H](C[C@@H]23)O[C@]2(CC[C@@H](C)CO2)[C@H]4C)[C@@]2(C)CC[C@H](O[C@@H]3O[C@H](CO)[C@@H](O[C@@H]4O[C@@H](C)[C@H](O)[C@@H](O)[C@H]4O)[C@H](O)[C@H]3O[C@@H]3O[C@@H](C)[C@H](O)[C@@H](O)[C@H]3O)C[C@H]12	50.4	101	46.6	7.58	9.25
Cc1cn([C@H]2C[C@H](N=[N+]=[N-])[C@@H](CO)O2)c(=O)[nH]c1=O [ZIDOVUDINE]		0.015		0.012	0.011
C[C@@H]1CC[C@@]2(OC1)O[C@H]1C[C@H]3[C@@H]4C[C@H](O)[C@H]5C[C@@H](O[C@@H]6O[C@H](CO)[C@@H](O[C@@H]7O[C@@H](C)[C@H](O)[C@@H](O)[C@H]7O)[C@H](O)[C@H]6O)CC[C@]5(C)[C@H]4CC[C@]3(C)[C@H]1[C@@H]2C	98.2	117	87.4		

— ChEMBL document CHEMBL1154771, “Discovery of the first series of small molecule H5N1 entry inhibitors” (J Med Chem, 2009)
